In patent publication US20090306625A1, “TREATMENT SYSTEMS AND METHODS FOR RENAL-RELATED DISEASES” (AngioDynamics, Inc., priority 2007, published 2009):
Counter-ions that a name gives are not always drawn.

How the values were obtained:
[1] = test system: patients with moderate to severe underlying renal dysfunction; experiment: Targeted renal therapy (intra-renal infusion) with fenoldopam mesylate in patients receiving a nephrotoxic radio-contrast agent; assay type: in vivo, human; settings: TRT (intra-renal) delivery
Source text: TRT can be applied to patients with various agents in many clinical settings to mitigate acute kidney injury. For example, TRT can be applied with fenoldopam mesylate, a dopamine DI-like agonist vasodilator (CORLOPAM® brand of Fenoldopam Mesylate Injection). […] The increase in GFR can be seen in the setting of an insult to the kidneys in the form of a nephrotoxic radio-contrast agent.

[2] = test system: septic patients; settings: IV infusion 0.09 mcg/kg/min, average of one week or more, ICU; cited from earlier work

## Oc1ccc(C2CNCCc3c2cc(O)c(O)c3Cl)cc1 (stereo not drawn) [fenoldopam mesylate]
[1]
  effect on blood pressure: no significant effect
[1]; nephrotoxic radio-contrast insult
  increase in glomerular filtration rate (GFR) above baseline: approximately 25%
[2]
  outcome in preventing kidney failure: improved outcomes in preventing kidney failure
